Measurements: ChEMBL document CHEMBL4665624, “Synthesis of 5-(4-(1H-phenanthro[9,10-d]imidazol-2-yl)benzylidene)thiazolidine-2,4-dione as promising DNA and serum albumin-binding agents and evaluation of antitumor activity” (Eur J Med Chem, 2019)
Calls of active or inactive are those of the source. No cut-off for these calls is given here.

Assays:
[1] = system: A549; experiment: Cytotoxicity against human A549/ATCC assessed as reduction in cell viability after 48 hrs by MTT assay; format: functional, cell-based; settings: A549, 48 h
[2] = system: UACC-62; experiment: Antitumor activity against human UACC-62 cells assessed as cell growth inhibition at 10 uM incubated for 48 hrs by sulforhodamine B assay; format: functional; settings: read-out: GI
[3] = target: DNA; experiment: Binding affinity to human DNA in blood assessed as DNA intercalation by measuring binding constant by UV-Vis spectral titration analysis; format: tissue-based
[4] = system: DNA; experiment: Binding affinity to human DNA in blood assessed as DNA intercalation by measuring increase in fluorescence emission intensity at 498 nm at 20 uM by fluorescence emission spectral analysis; format: tissue-based
[5] = target: T1, Albumin (Bos taurus, UniProt P02769); experiment: Binding affinity to bovine serum albumin assessed as spontaneous interaction by measuring change in gibbs free energy at 318K by thermodynamic based analysis; format: ADME, cell-free; settings: cattle
[6] = system: COLO 205; experiment: Antitumor activity against human COLO205 cells assessed as cell growth inhibition at 10 uM incubated for 48 hrs by sulforhodamine B assay; format: functional; settings: read-out: GI
[7] = target: T1, Albumin; experiment: Binding affinity to bovine serum albumin assessed as appearance of new fluorescence band at 510 nm at 0-12 uM by fluorescence emission spectrum analysis; format: ADME, cell-free; settings: cattle
[8] = system: 786-0; experiment: Antitumor activity against human 786-0 cells assessed as cell growth inhibition at 10 uM incubated for 48 hrs by sulforhodamine B assay; format: functional; settings: read-out: GI
[9] = system: HT-29; experiment: Antitumor activity against human HT-29 cells assessed as cell growth inhibition at 10 uM incubated for 48 hrs by sulforhodamine B assay; format: functional; settings: read-out: GI
[10] = system: Calf thymus DNA; experiment: Binding affinity to minor groove of calf thymus DNA assessed as ICD band intensity between 350 and 400 nm at 1 uM by CD spectroscopy; format: nucleic-acid assay; settings: Bos taurus
[11] = system: Calf thymus DNA; experiment: Binding affinity to calf thymus DNA assessed as bimolecular quenching constant by ethidium bromide competitive displacement assay; format: nucleic-acid assay; settings: Bos taurus
[12] = system: A549; experiment: Cytotoxicity against human A549/ATCC assessed as reduction in cell viability at 1 uM after 48 hrs by MTT assay; format: functional
[13] = system: OVCAR-3; experiment: Antitumor activity against human OVCAR-3 cells assessed as cell growth inhibition at 10 uM incubated for 48 hrs by sulforhodamine B assay; format: functional; settings: read-out: GI
[14] = system: HOP-92; experiment: Antitumor activity against human HOP92 cells assessed as cell growth inhibition at 10 uM incubated for 48 hrs by sulforhodamine B assay; format: functional; settings: read-out: GI
[15] = system: NCI-H522; experiment: Antitumor activity against human NCI-H522 cells assessed as cell growth inhibition at 10 uM incubated for 48 hrs by sulforhodamine B assay; format: functional; settings: read-out: GI
[16] = system: RPMI-8226; experiment: Antitumor activity against human RPMI8226 cells assessed as cell growth inhibition at 10 uM incubated for 48 hrs by sulforhodamine B assay; format: functional; settings: read-out: GI
[17] = target: T1, Albumin; experiment: Binding affinity to bovine serum albumin assessed as Stern-Volmer quenching constant at 298K by fluorescence emission spectrum analysis; format: ADME, cell-free; settings: cattle
[18] = system: Calf thymus DNA; experiment: Binding affinity to calf thymus DNA assessed as increase in fluorescence emission intensity at 468 nm at 20 uM by fluorescence emission spectroscopic analysis; format: nucleic-acid assay; settings: Bos taurus

T1 sequence (P02769 whole entry): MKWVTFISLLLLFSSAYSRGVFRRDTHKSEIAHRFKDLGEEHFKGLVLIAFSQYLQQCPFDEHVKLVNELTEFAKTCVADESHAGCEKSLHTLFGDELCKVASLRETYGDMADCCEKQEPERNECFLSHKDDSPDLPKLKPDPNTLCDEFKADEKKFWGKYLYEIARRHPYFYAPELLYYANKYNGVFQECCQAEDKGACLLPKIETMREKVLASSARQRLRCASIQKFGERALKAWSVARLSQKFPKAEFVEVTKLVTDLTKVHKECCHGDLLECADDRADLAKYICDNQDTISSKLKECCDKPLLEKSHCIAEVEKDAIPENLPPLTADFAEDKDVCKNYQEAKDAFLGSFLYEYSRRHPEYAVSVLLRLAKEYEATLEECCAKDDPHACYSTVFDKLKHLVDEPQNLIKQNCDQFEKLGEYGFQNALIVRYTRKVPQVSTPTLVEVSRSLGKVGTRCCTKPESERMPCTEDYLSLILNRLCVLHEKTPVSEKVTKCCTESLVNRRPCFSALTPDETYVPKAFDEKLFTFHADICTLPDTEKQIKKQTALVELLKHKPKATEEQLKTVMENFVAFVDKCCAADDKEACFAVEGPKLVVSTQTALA

## O=C1NC(=O)/C(=C/c2ccc(-c3nc4c5ccccc5c5ccccc5c4[nH]3)cc2)S1
[1]
  IC50: 1.7 µM
[2]
  inhibition of growth at 10 µM: 30.3%
[3]
  Kb: 5.24 10^4/M
[4]
  Activity: Active
[5]
  deltaG: -9.41 kcal/mol
[6]
  inhibition of growth at 10 µM: < 10%
[7]
  Activity: Active
[8]
  inhibition of growth at 10 µM: 48%
[9]
  inhibition of growth at 10 µM: 24%
[10]
  Activity: inactive
[11]
  Kq: 6.53 10^12/M/s
[12]
  Activity: 75%
[13]
  inhibition of growth at 10 µM: 21.3%
[14]
  inhibition of growth at 10 µM: 21.4%
[15]
  inhibition of growth at 10 µM: 47.6%
[16]
  inhibition of growth at 10 µM: 66.1%
[17]
  KSV: 8.42 10^5/M
[18]
  Activity: Active
